Reference: patent publication US6514946B1, “Macrolide antibiotics and treatment and prophylaxis of pasteurellosis using the same” (Zaidan Hojin Biseibutsu Kagaku Kenkyu Kai, priority 1999, dated 2003)
Values after ≈ are worked out from the molar mass of the structure shown.

Experiments:
[1] = system: Bacillus subtilis NRRL B-558; assay: Minimum inhibition concentration (MIC), agar double dilution method; type: cell-based; conditions: Bacillus subtilis NRRL B-558; Mueller hinton agar
Description: (§1) Test 1; Minimum Inhibition Concentration (MIC)
(§2) MIC was measured, based on the standard method of Japan Society of Chemotherapy, on a BHI agar medium (Brain heart-infusion agar, made by Difco Laboratories Inc.(USA)) with respect to Pasteurella and on a Mueller hinton agar medium (Mueller hinton agar, made by Difco, Laboratories Inc.(USA)) with respect to the other test bacteria in both cases according to the double dilution method.

[2] = system: Pasteurella haemolytica BBPO101 N791; assay: as above; type: cell-based; conditions: Pasteurella haemolytica BBPO101 N791, strain from cattle; BHI agar
Description: as §1, §2

[3] = system: Salmonella enteritidis 1891; assay: as above; type: cell-based; conditions: Mueller hinton agar
Description: as §1, §2

[4] = system: Proteus vulgaris OX19; assay: as above; type: cell-based; conditions: Mueller hinton agar
Description: as §1, §2

[5] = system: Shigella dysenteriae JS11910; assay: as above; type: cell-based; conditions: Shigella dysenteriae JS11910; Mueller hinton agar
Description: as §1, §2

[6] = system: Staphylococcus aureus 193; assay: as above; type: cell-based; conditions: Mueller hinton agar
Description: as §1, §2

[7] = system: Klebsiella pneumoniae PCI602; assay: as above; type: cell-based; conditions: Mueller hinton agar
Description: as §1, §2

[8] = system: Micrococcus luteus PCI1001; assay: as above; type: cell-based; conditions: Mueller hinton agar
Description: as §1, §2

[9] = system: Escherichia coli NIHJ; assay: as above; type: cell-based; conditions: Mueller hinton agar
Description: as §1, §2

[10] = system: Serratia marcescens; assay: as above; type: cell-based; conditions: Mueller hinton agar
Description: as §1, §2

[11] = system: Enterobacter aerogenes ATCC13048; assay: as above; type: cell-based; conditions: Mueller hinton agar
Description: as §1, §2

[12] = system: Past. multocida BOPO305 M-17; assay: as above; type: cell-based, Pasteurella multocida; conditions: Past. multocida BOPO305 M-17, strain from a sheep; BHI agar
Description: as §1, §2

[13] = system: Past. multocida BSPO302 No. 6; assay: as above; type: cell-based, Pasteurella multocida; conditions: Past. multocida BSPO302 No. 6, strain from a pig; BHI agar
Description: as §1, §2

[14] = system: S. aureus FDA209P; assay: as above; type: cell-based, Staphylococcus aureus; conditions: Mueller hinton agar
Description: as §1, §2

[15] = system: S. aureus Smith (virulent strain); assay: microbe, parasite or virus in culture; type: cell-based, Staphylococcus aureus; conditions: S. aureus Smith (virulent strain); Mueller hinton agar
Description: as §1, §2

[16] = system: E. coli K-12 R-5; assay: Minimum inhibition concentration (MIC), agar double dilution method; type: cell-based, Escherichia coli; conditions: Mueller hinton agar
Description: as §1, §2

[17] = system: Past haemolytica BAPO103 S801; assay: as above; type: cell-based, Pasteurella haemolytica; conditions: Past haemolytica BAPO103 S801, strain from poultry; BHI agar
Description: as §1, §2

[18] = system: Past haemolytica BBPO102 N811; assay: as above; type: cell-based, Pasteurella haemolytica; conditions: Past haemolytica BBPO102 N811, strain from cattle; BHI agar
Description: as §1, §2

[19] = system: ICR mice; assay: Toxicity test, intravenous or subcutaneous injection; type: in vivo
[20] = intravenous injection, 0.25 mg/mouse
[21] = intravenous injection, 0.5 mg/mouse
[22] = intravenous injection, 1.5 mg/mouse
[23] = intravenous injection, 2.0 mg/mouse
[24] = subcutaneous injection, 1.0 mg/mouse
[25] = subcutaneous injection, 2.0 mg/mouse
[26] = subcutaneous injection, 3.0 mg/mouse
[27] = subcutaneous injection, 4.0 mg/mouse

| SMILES | MIC [1] | MIC [2] | MIC [3] | MIC [4] | MIC [5] | MIC [6] | MIC [7] | MIC [8] | MIC [9] | MIC [10] | MIC [11] | MIC [12] | MIC [13] | MIC [14] | MIC [15] | MIC [16] | MIC [17] | MIC [18] | also measured |
| --- | --- | --- | --- | --- | --- | --- | --- | --- | --- | --- | --- | --- | --- | --- | --- | --- | --- | --- | --- |
| CC[C@H]1OC(=O)C[C@@H](O)[C@H](C)[C@@H](O[C@@H]2O[C@H](C)C(O)C(N(C)C)C2O)[C@@H](CCN(C)C)C[C@@H](C)C(=O)/C=C/C(C)=C/[C@@H]1CN(C)C (stereo partly drawn) [Compound C-1] | 100 µg/mL (≈ 153 µM) | 6.25 µg/mL (≈ 9.56 µM) | 6.25 µg/mL (≈ 9.56 µM) | 100 µg/mL (≈ 153 µM) | 50 µg/mL (≈ 76.5 µM) | 50 µg/mL (≈ 76.5 µM) | 25 µg/mL (≈ 38.2 µM) | 3.13 µg/mL (≈ 4.79 µM) | 12.5 µg/mL (≈ 19.1 µM) | >100 µg/mL | 50 µg/mL (≈ 76.5 µM) | 6.25 µg/mL (≈ 9.56 µM) | 12.5 µg/mL (≈ 19.1 µM) | 50 µg/mL (≈ 76.5 µM) | 100 µg/mL (≈ 153 µM) | >100 µg/mL | 50 µg/mL (≈ 76.5 µM) | 6.25 µg/mL (≈ 9.56 µM) |  |
| CC[C@H]1OC(=O)C[C@@H](O)[C@H](C)[C@@H](O[C@@H]2O[C@H](C)C(O)C(N(C)C)C2O)[C@@H](CCN(C)C2CCCCC2)C[C@@H](C)C(=O)/C=C/C(C)=C/[C@@H]1CN(C)C1CCCCC1 (stereo partly drawn) [Compound C-3] | 3.13 µg/mL (≈ 3.96 µM) | 0.39 µg/mL (≈ 0.494 µM) | 1.56 µg/mL (≈ 1.97 µM) | 12.5 µg/mL (≈ 15.8 µM) | 6.25 µg/mL (≈ 7.91 µM) | 1.56 µg/mL (≈ 1.97 µM) | 3.13 µg/mL (≈ 3.96 µM) | 0.78 µg/mL (≈ 0.987 µM) | 3.13 µg/mL (≈ 3.96 µM) | 50 µg/mL (≈ 63.3 µM) | 12.5 µg/mL (≈ 15.8 µM) | 1.56 µg/mL (≈ 1.97 µM) | 1.56 µg/mL (≈ 1.97 µM) | 1.56 µg/mL (≈ 1.97 µM) | 3.13 µg/mL (≈ 3.96 µM) |  |  | 0.78 µg/mL (≈ 0.987 µM) |  |
| CC[C@H]1OC(=O)C[C@@H](O)[C@H](C)[C@@H](O[C@@H]2O[C@H](C)C(O)C(N(C)C)C2O)[C@@H](CCN(C)Cc2ccccc2)C[C@@H](C)C(=O)/C=C/C(C)=C/[C@@H]1CN(C)Cc1ccccc1 (stereo partly drawn) [Compound C-4] |  | 0.39 µg/mL (≈ 0.484 µM) | 1.56 µg/mL (≈ 1.94 µM) | 12.5 µg/mL (≈ 15.5 µM) | 3.13 µg/mL (≈ 3.88 µM) | 0.39 µg/mL (≈ 0.484 µM) | 6.25 µg/mL (≈ 7.75 µM) | 0.20 µg/mL (≈ 0.248 µM) | 6.25 µg/mL (≈ 7.75 µM) | 100 µg/mL (≈ 124 µM) | 12.5 µg/mL (≈ 15.5 µM) | 0.76 µg/mL (≈ 0.943 µM) | 1.56 µg/mL (≈ 1.94 µM) | 0.39 µg/mL (≈ 0.484 µM) | 6.25 µg/mL (≈ 7.75 µM) | >100 µg/mL | 6.25 µg/mL (≈ 7.75 µM) | 0.39 µg/mL (≈ 0.484 µM) |  |
| CC[C@H]1OC(=O)C[C@@H](O)[C@H](C)[C@@H](O[C@@H]2O[C@H](C)C(O)C(N(C)C)C2O)[C@@H](CCN2CCCC2)C[C@@H](C)C(=O)/C=C/C(C)=C/[C@@H]1CN1CCCC1 (stereo partly drawn) [Compound C-6] | 50 µg/mL (≈ 70.8 µM) | 1.56 µg/mL (≈ 2.21 µM) | 3.13 µg/mL (≈ 4.43 µM) |  | 12.5 µg/mL (≈ 17.7 µM) | 25 µg/mL (≈ 35.4 µM) |  | 1.56 µg/mL (≈ 2.21 µM) | 6.25 µg/mL (≈ 8.85 µM) | 100 µg/mL (≈ 142 µM) | 50 µg/mL (≈ 70.8 µM) | 3.13 µg/mL (≈ 4.43 µM) | 6.25 µg/mL (≈ 8.85 µM) |  | 25 µg/mL (≈ 35.4 µM) | >100 µg/mL | 25 µg/mL (≈ 35.4 µM) | 1.56 µg/mL (≈ 2.21 µM) |  |
| CC[C@H]1OC(=O)C[C@@H](O)[C@H](C)[C@@H](O[C@@H]2O[C@H](C)C(O)C(N(C)C)C2O)[C@@H](CCN2CCCCCC2)C[C@@H](C)C(=O)/C=C/C(C)=C/[C@@H]1CN1CCCCCC1 (stereo partly drawn) [Compound C-7] | 6.25 µg/mL (≈ 8.2 µM) | 0.20 µg/mL (≈ 0.262 µM) | 0.78 µg/mL (≈ 1.02 µM) | 3.13 µg/mL (≈ 4.11 µM) | 1.56 µg/mL (≈ 2.05 µM) |  | 0.78 µg/mL (≈ 1.02 µM) | 0.20 µg/mL (≈ 0.262 µM) |  | 12.5 µg/mL (≈ 16.4 µM) | 3.13 µg/mL (≈ 4.11 µM) | 0.10 µg/mL (≈ 0.131 µM) | 0.39 µg/mL (≈ 0.512 µM) |  | 3.13 µg/mL (≈ 4.11 µM) | 25 µg/mL (≈ 32.8 µM) |  | 0.20 µg/mL (≈ 0.262 µM) | Dissection finding [19, 20]: no abnormal finding; Surviving number [19, 20]: 2/2; Dissection finding [19, 21]: no abnormal finding; Surviving number [19, 21]: 1/2 (immediate death); Dissection finding [19, 22]: no abnormal finding; Surviving number [19, 22]: 0/2 (immediate death); Dissection finding [19, 23]: no abnormal finding; Surviving number [19, 23]: 0/2 (immediate death); Dissection finding [19, 24]: no abnormal finding; Surviving number / number of used animals [19, 24]: 2/2; Dissection finding [19, 25]: no abnormal finding; Surviving number / number of used animals [19, 25]: 2/2; Dissection finding [19, 26]: a little decoloring in kidney; Surviving number / number of used animals [19, 26]: 2/2; Dissection finding [19, 27]: no abnormal finding; Surviving number / number of used animals [19, 27]: 0/1 (died after 30 minutes) |
| CC[C@H]1OC(=O)C[C@@H](O)[C@H](C)[C@@H](O[C@@H]2O[C@H](C)C(O)C(N(C)C)C2O)[C@@H](CCN2CC(C)CC(C)C2)C[C@@H](C)C(=O)/C=C/C(C)=C/[C@@H]1CN1CC(C)CC(C)C1 (stereo partly drawn) [DMP-MT] |  | 0.39 µg/mL (≈ 0.494 µM) | 3.13 µg/mL (≈ 3.96 µM) | 25 µg/mL (≈ 31.6 µM) | 12.5 µg/mL (≈ 15.8 µM) | 3.13 µg/mL (≈ 3.96 µM) | 6.25 µg/mL (≈ 7.91 µM) | 1.56 µg/mL (≈ 1.97 µM) | 6.25 µg/mL (≈ 7.91 µM) | 100 µg/mL (≈ 127 µM) | 25 µg/mL (≈ 31.6 µM) | 0.39 µg/mL (≈ 0.494 µM) | 0.78 µg/mL (≈ 0.987 µM) | 1.56 µg/mL (≈ 1.97 µM) | 6.25 µg/mL (≈ 7.91 µM) | >100 µg/mL | 1.56 µg/mL (≈ 1.97 µM) | 0.39 µg/mL (≈ 0.494 µM) |  |
| CC[C@H]1OC(=O)C[C@@H](O)[C@H](C)[C@@H](O[C@@H]2O[C@H](C)C(O)C(N(C)C)C2O)[C@@H](CCN2CCC(C)CC2)C[C@@H](C)C(=O)/C=C/C(C)=C/[C@@H]1CN1CCC(C)CC1 (stereo partly drawn) [MP-MT] | 25 µg/mL (≈ 32.8 µM) | 0.39 µg/mL (≈ 0.512 µM) | 3.13 µg/mL (≈ 4.11 µM) | 12.5 µg/mL (≈ 16.4 µM) | 6.25 µg/mL (≈ 8.2 µM) | 1.56 µg/mL (≈ 2.05 µM) | 3.13 µg/mL (≈ 4.11 µM) | 0.78 µg/mL (≈ 1.02 µM) |  | 50 µg/mL (≈ 65.6 µM) | 12.5 µg/mL (≈ 16.4 µM) | 0.39 µg/mL (≈ 0.512 µM) | 0.39 µg/mL (≈ 0.512 µM) | 1.56 µg/mL (≈ 2.05 µM) |  | >100 µg/mL | 3.13 µg/mL (≈ 4.11 µM) | 0.39 µg/mL (≈ 0.512 µM) |  |
